Entries after “also recorded” stand apart in the source; their conditions may differ.
Key:
PC12 cells [1] = test: PC12 cell survival assay, zinc toxicity, MTS (Example 1); details: 400 μM zinc, 4 hrs, peptide 10^−9M
Method: PC12 cells (Pheochromocytoma cells) (ATCC, Bethesda, Md., USA) were seeded at 3×10^4 cells/cm^2 on poly-L-Lysine coated plastic tissue culture dishes (Corning, Lowell, Mass., USA) to form an adherent monolayer. Cells were maintained in Dulbecco's modified Eagle's medium (DMEM) supplemented with 10% horse serum (HS), 5% fetal calf serum (FCS), 2 mM glutamine, 100 U/ml penicillin and […] streptomycin (Biological Industries, Beit Haemek, Israel). PC12 differentiation was induced by nerve growth factor (NGF, Sigma) at concentrations of 50 ng/ml by replacing half of the medium every other day until the cells acquired a differentiated morphology. Differentiated cells were defined as bearing two or more neurites with lengths equal to or more than twice the diameter of the cell body (P. Lamoureux et al., The Journal of cell biology 110, 71 (January, 1990)). The cells were incubated in 5% CO2 in a humidified incubator at 37° C. The cells were sub-cultured every 5 days at a 4:1 split ratio by pipetting. The medium was changed every 2 or 3 days after adhesion.
Transfections were performed using Lipofectamine RNAiMAX (Invitrogen). Transfection was carried out according to manufacturer's protocol. For rat MAPRE3 knockdown, PC12 cells or neurons were plated in growth medium without antibiotics at concentration of 10^4 cells/0.32 cm^2 such that they will be 30-50% confluent at the time of transfection. To obtain the highest transfection efficiency and low non-specific effects, siRNA transfection was performed in the following optimized conditions: 50 nM for neurons and 25 nM PC12 of each siRNA construct with 0.2 μl Lipofectamine RNAiMAX (Invitrogen) was added per well of the 96-well plate and scaled up for different 24 or 6-well plates, according to the manufacturer's instructions. The medium was changed one day after transfection. 48 and 72 hours later, cells were harvested to assay for gene knockdown at the RNA and protein levels.
The cells were incubated for 4 hrs at 37° C. 5% CO2. Survival was measured using the MTS assay.
Metabolic activity of cells was measured by the CellTiter 96® Aqueous Non-Radioactive Cell Proliferation kit in accordance with the manufacturer's instructions (Promega). The assay uses a colorimetric method for determining the number of viable cells employing a tetrazolium compound [3-(4,5-dimethylthiazol-2-yl)-5-(3-carboxymethoxyphenyl)-2-(4-sulfophenyl)-2H-tetrazolium, MTS] and an electron-coupling reagent, phenazine methosulfate (PMS). MTS is bio-reduced by cells into a formazan product that is detected at 490 nm. The conversion of MTS into the formazan form is accomplished by dehydrogenase enzymes found in metabolically active cells. Thus, the quantity of formazan product as measured by the amount of 490 nm absorbance is directly proportional to the number of living cells in culture (A. H. Cory, T. C. Owen, J. A. Barltrop, J. G. Cory, Cancer Commun 3, 207 (July, 1991)).

[2] = target: T1, full-length human EB3 recombinant protein (Homo sapiens, UniProt Q9UPY8); test: Sulfolink coupling gel-NAP affinity chromatography with recombinant EB3, western analysis; type: binding; details: 2 mg soluble peptide incubated with recombinant EB3 and column beads
T1 construct: Full-length human EB3 was subcloned into pEX-N-His vector; 6xHis (N, cleaved yes); made in house; host or cells: E. coli BL21(DE3)
Method: Column load, flow through, wash and elution fractions were further analyzed by polyacrylamide gel electrophoresis, followed by western analysis with EB3 antibodies. […] Column chromatography, elution and western blots were performed as above. The extract fractions (flow, wash and elution) were separated by electrophoresis followed by protein detection (FIG. 6).

primary cortical neurons = test: PSD-95 density in primary cortical neuron culture; type: cell-based, rat; details: neurons treated for 2 hrs
Method: Methods: 1. Primary cultures of neurons were prepared as follows. Newborn rats were sacrificed on postnatal day 1. Cerebral cortex tissue was then dissected and dissociated individually from each pup with the Papain Dissociation System (PDS; Worthington Biochemical Corporation) according to the manufacturer's instructions. 2. Cells were fixed with ice cold methanol, blocked with 2% bovine serum albumin (BSA) and 5% normal goat serum in Tris buffered saline containing tween 20 (TBS-T; 20 mM Tris pH 7.5, 136.8 mM NaCl, and 0.05% v/v Tween 20), and incubated with primary antibody followed by the appropriate secondary antibody. 3. Primary antibodies that were used include: monoclonal anti PSD-95 (ab-2723, Abcam), monoclonal anti Tyr-α-tubulin antibody (YL1/2) (VMA1864, Abcys, Paris, France), polyclonal anti Glu-α-tubulin antibody (L4) (AbC0101, Abcys, Paris, France), DyLight 488-labeled secondary goat anti-mouse IgG, DyLight 633-labeled secondary goat anti-rabbit IgG (KPL, Gaithersburg, Md., USA), Cy3-conjugated secondary goat anti-Rat IgG, (Jackson ImmunoResearch). 4. Images were collected with a Leica SP5 confocal laser scanning microscope (Mannheim, Germany) with 63× oil immersion optics, laser lines at 488, 561, 633 nm. Identical confocal laser scanning microscopy (CLSM) parameters (e.g., scanning line, laser light, gain, and offset etc.) were used for control and NAP treated cells.
For instance, a PSD-95 expression assay using primary cortical neuron cultures established from suitable animals may be performed to confirm a compound's activity in promoting cell plasticity. More specifically, primary cultures of neurons are prepared by first taking cerebral cortex tissue from newborn rats on postnatal day 1. The cerebral cortex tissue is then dissected and dissociated individually from each animal. Cells are fixed with ice cold methanol, blocked (e.g., with bovine serum albumin (BSA) and normal goat serum), and incubated with primary antibody (e.g., monoclonal antibody against PSD-95), optionally followed by the appropriate secondary antibody for imaging purposes. Images of primary neuronal cultures are taken and compared between cultures with or without being exposed to a test compound. An increased PSD-95 expression is indicative of the test compound being capable of promoting or protecting cell plasticity, especially neuronal plasticity.
Cerebral cortex tissue from newborn rats was dissected and dissociated individually from each pup with the Papain Dissociation System (PDS), (Worthington Biochemical Corporation) according to the manufacturer's instructions. Cortical neurons were maintained in Neurobasal medium (NB), (Gibco) supplemented with NeuroCult B27-SM1 ([…]), 1% Glutamax (Gibco), and grown on poly-D-lysine-coated cell culture glass cover slips.
Images were collected with a Leica SP5 confocal laser scanning microscope (Mannheim, Germany) with 63× oil immersion optics, laser lines at 488, 561, 633 nm or with LSM 510 META (Zeiss, Jena, Germany) confocal laser scanning microscope with 63× oil immersion optics, laser lines at 488, 568, 633 nm. When comparing fluorescence intensities, identical CLSM parameters (e.g., scanning line, laser light, gain, and offset etc.) were used. All of the fluorescent signals acquired were above the autofluorescent background as measured from a control slide stained with secondary antibody without a primary antibody. To compare the relative levels of protein expression, the average integrated density (AID) image analysis procedure was used for cell immunostains. In brief, integrated density is defined by the sum of the values of the pixels in the selected region of interest (ROI). This is equivalent to the product of Area and Mean Gray Value. AID for the positive stained area was determined by measuring the fluorescent intensity of the ROI, which is above the positive cut-off intensity. […]

astrocytes = test: MT organization in astrocytes (FIG. 14); type: cell-based, rat
Method: Newborn rats (Harlan, Jerusalem, Israel) were sacrificed by decapitation, and the brain was removed (D. E. Brenneman et al., J Pharmacol Exp Ther 309, 1190 (June, 2004)). The tissue was minced with scissors and placed in Hank's balanced salts solution 1 (S1), containing HBSS (Biological Industries, Beit Haemek, Israel), 15 mM HEPES buffer, pH 7.3 (Biological Industries, Beit Haemek, Israel), and 0.25% trypsin (Biological Industries) in an incubator at 37° C. 5% CO2 for 20 min. The cells were then placed in 5 mL of solution 2 (S2) containing 10% heat inactivated fetal serum (Biological Industries), 0.1% gentamycin sulphate solution (Biological Industries), and 0.1% penicillin-streptomycin-nystatin solution (Biological Industries) in Dulbecco's modified Eagle's medium (DMEM, Sigma, Rehovot, Israel). The cells were allowed to settle and are then transferred to a new tube containing 2.5 mL of S2 and triturated using a Pasteur pipette. Cell density was determined using a hemocytometer (Neubauer Improved, Germany) and 15×10^6 cells/15 mL S2 are inoculated into each 75-cm^2 flask (Corning, Corning, N.Y., USA). Cells are incubated at 37° C. 10% CO2. The medium was changed after 24 h, and cells are grown until confluent.
The flasks were shaken to dislodge residual neurons and oligodendrocytes that may be present. Flasks were then washed with 10 mL cold HBSS×1, HEPES 15 mM. 5 mL of versene-trypsin solution (BioLab, Jerusalem, Israel) were added to each flask, and the flasks are incubated at room temperature for 5 min to remove astrocytes. The flasks were shaken to dislodge the cells. The versenetrypsin solution was neutralized with 5 mL of S2. The cell suspension was collected and centrifuged at 100 g for 10 min. The supernatant was removed and the cells resuspended in S2. Cells were inoculated into 75-cm^2 flasks or plated in 35-mm dishes (Corning, Corning, N.Y., USA) and incubated until confluence at 37° C. 10% CO2. […]

PC12 cells [3] = details: ZnCl2 400 μM, peptide 10^−13M
Method: FIG. 15: Rat pheochromocytoma cells (PC12) were seeded on Poly-D-Lysine coated 96-well tissue culture dishes in high concentration (30,000 cells/well). On the day of the experiment the cells were treated with ZnCl2 (400 μM) either alone or in combination with different concentration of SKIP for 4 h. After 4 h the cell viability was analyzed by MTS assay. […] All values are from one experiment performed in hexplicate.
Rat pheochromocytoma cell (PC12, ATCC, Bethesda, Md., USA) were grown in 10-cm tissue culture dishes (Corning). The base medium for this cell line was RPMI-1640 Medium (Invitrogen) supplemented with 10% heat-inactivated horse serum, 5% fetal bovine serum and solution containing 100 U/ml penicillin together with […] streptomycin (Biological Industries, Beit Haemek, Israel). The cells were incubated in 95% air; 5% CO2 in a humidified incubator at 37° C. The medium was changed every 2 to 3 days. The cells were subcultured when cell density reached 4×10^6 cells/ml. The cells were split in a ratio of 1:4.
On the day before the experiment cells were to be harvested, re-suspended and seeded on tissue culture dishes. For cell viability measurements, cells were seeded on Poly-D-Lysine coated 96-well tissue culture dishes (Sigma-Aldrich) at a concentration of 3×10^4 cells/well.
The cell viability is measured by colorimetric method that determines the number of viable cells in culture. This method is based on the bio-reduction of the tetrazolium compound [3-(4,5-dimethylthiazol-2-yl)-5-(3-carboxymethoxyphenyl)-2-(4-sulfophenyl)-2H-tetrazolium; MTS] by living cells into a colored formazan product. This reaction is occurring in the presence of an electron coupling reagent (phenazine ethosulfate; PES). The amount of formazan product is measured by ELISA plate reader at 490 nm and is directly proportional to the number of living cells in culture (CellTiter 96® AQueous One Solution Cell Proliferation Assay; Promega, Madison, Wis., USA).

T1 sequence (Q9UPY8 whole entry): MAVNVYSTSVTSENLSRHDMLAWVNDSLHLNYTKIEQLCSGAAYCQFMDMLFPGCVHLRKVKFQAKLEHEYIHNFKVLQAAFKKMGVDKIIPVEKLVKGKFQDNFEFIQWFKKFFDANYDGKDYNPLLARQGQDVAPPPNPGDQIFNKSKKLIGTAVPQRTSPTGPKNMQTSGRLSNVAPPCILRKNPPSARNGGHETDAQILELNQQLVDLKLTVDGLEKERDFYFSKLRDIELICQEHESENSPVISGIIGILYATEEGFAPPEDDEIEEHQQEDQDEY

Substance: Acetyl-NAPVSKIPQ-NH2 (Ac-NAPVSKIPQ-NH2)
- protection against cell death induced by zinc toxicity (MTS survival) (PC12 cells [1]): provided protection against zinc toxicity
- protection against cell death induced by zinc toxicity (MTS survival) (PC12 cells [1]; listed as Ac-SKIP): significantly increased survival
- protection against cell death induced by zinc toxicity (MTS survival) (PC12 cells [1]; listed as Acetyl-NAPVSKIPQ): significantly increased survival

Substance: NAPVAAAAQ [negative control peptide]
- competition for EB3 binding to column-bound NAP [2]: no competition
- derivative peptides effect on PSD-95 density vs vehicle controls (FIG. 10c) (primary cortical neurons): did not enhance PSD-95 staining; also recorded: not affected

Substance: NAPVAIPQ [NAPVAIPQ (S5A)]
- activity of NAP-like peptide (FIG. 14) (astrocytes): inactive

Substance: NAPVSAIPQ [negative control peptide]
- competition for EB3 binding to column-bound NAP [2]: no competition
- derivative peptides effect on PSD-95 density vs vehicle controls (FIG. 10c) (primary cortical neurons): did not enhance PSD-95 staining; also recorded: not affected

Substance: NAPVSGIPQ (synthetic novel peptide core sequence derived from hybrid microtubule end-binding protein 3 (EB3)-binding microtubule plus-end tracking proteins (+TIPs) and activity- dependent neurotrophic factor (ADNF) active core site (NAP)) [NAPVSGIPQ (SEQ ID NO:5)]
- protection against Zn toxicity (MTS viability vs Zn alone) (PC12 cells [3]): showed protection

Substance: NAPVSIAQ [NAPVSIAQ (P7A)]
- activity of NAP-like peptide (FIG. 14) (astrocytes): inactive
- effect on MT organization (astrocytes; 4 hours of incubation): did not mimic NAP activity

Substance: NAPVSRIPQ
- protection against cell death induced by zinc toxicity (MTS survival) (PC12 cells [1]): inactive

Substance: NAPVTRIPQ
- protection against cell death induced by zinc toxicity (MTS survival) (PC12 cells [1]): inactive

Source: patent US10118943B2, “Compounds and methods for inhibiting cell death” (Ramot at Tel-Aviv University Ltd., priority 2012, dated 2018)
